The values that follow come from US8859235B2, “Methods in cell cultures, and related inventions, employing certain additives” (priority 2009, dated 2014).

In one test the test system is E. coli JM109. The test is described as follows: Growth and GFP expression in high cell density fedbatch cultivation of E. coli JM109 in mineral medium. The class given is cell-based, Escherichia coli. The conditions noted are these: for Optical density Value / GFP expression (RFU/OD600) Value: additive 5 mM. The protocol: (§1) The measurement of GFP expression by whole cell fluorescence measurements follows the procedure of Scholz et al. (Eur. J. Biochem., 2000,267, 1565-1570). Frozen cell pellets are thawed, resuspended in 1 mL PBS [NaCl (8 g/L), KCl (0.2), of Na2HPO4 (1.44), KH2PO4 (0.24), adjusted to pH 7.4] and subsequently diluted to an optical density of 0.1. GFP fluorescence of whole cells is measured in a Eclipse Fluorometer (Varian) with an excitation wavelength of 400 nm and an emission wavelength of 512 nm. Specific relative fluorescence [RFU/OD600] is calculated by dividing the relative fluorescence emmision units by the optical density of the suspension at 600 nm.
A first preculture of E. coli JM109 harboring the plasmid pBAD-GFPuv is initiated from glycerol stocks stored at −80° C. in 3 mL of LB medium containing 0.01% (v/v) Antifoam A (Fluka). After growth for 10-12 h it is used to seed 2×100 mL of mineral medium (as described in Example 1) containing 0.01% Antifoam A (silicone fluid containing a suspension of finely powdered silica to enhance its defoaming efficiency; Dow Corning Corporation, Midland, Mich., USA), in 1 L baffled shake flasks. After 10-12 h this culture is centrifuged resuspended in 50 mL mineral medium and is used to inoculate the main culture.
Cultivation is performed in BioFlow110 bioreactors (Total volume 2.2 L; New Brunswick Scientific, Nürtingen, Germany) filled with 1 L of mineral medium plus 0.01% (v/v) Antifoam A for the batch phase. Reactors are equipped with pH, pO2 and foam probes, mass flow controllers to control gas flow and ratio of air and pure oxygen and pumps for automated dosage of base (14% [v/v] aqueous NH3), antifoam (25% [v/v] Antifoam A) and nutrient feed solution. The agitation is set to 500 rpm and air is supplied at a gas flow rate of 2 L/min. The fedbatch culture is incoculated to an OD600 of 0.25-0.5 and allowed to grow unlimited with a specific growth rate of ˜0.5 h^−1. Growth is monitored by measuring OD600. When the disolved oxygen concentration decreases to 30%, automated adjustment of the air:oxygen ratio in the gas mix is started to control dO2 to 30% using a PID loop. When the gas mix consisted of 100% oxygen a further increase in oxygen transfer is achieved through increasing the agitation rate up to a maximum level of 1200 rpm. When glycerol in the batch medium is completely consumed, as indicated by a distinct drop of pure oxygen in the gas mix, feeding solutions (first containing 70 g/L glycerol and later as cell density increased 200 g/L glycerol in mineral medium) are pumped into the reactor by a predefined exponential fed scheme. The feeding rate is calculated to allow the cells to grow at a growth rate of approximately 0.15 h^−1. During the feeding phase dO2 is also kept at 30%. 3-6 h after starting the feeding protein expression is induced by the addition of 0.2 (w/v) L-arabinose. Samples are taken every hour for OD600 reading and to obtain cell pellets which are stored at −20° C. for further analysis. Analysis of in vivo GFP fluorescence is performed by the method described in Example 1.

The next test deals with E. coli BL21. The test is described as follows: Growth and GFPuv expression in E. coli BL21 (DE3), shake flask batch culture in complex medium. The test is classed as cell-based, Escherichia coli. The conditions noted are these: additive 5 mM, 20 h after induction. The procedure: as §1
Precultures are prepared in 250 mL baffled shake flasks containing 25 mL sterile LB medium [Tryptone (10.0 g/L), yeast extract (5.0), NaCl (10.0), kanamycin 30 (mg/L); adjusted to pH 7.0 with NaOH]. Cultures are inoculated with 250 μL of a glycerol stock stored at −80° C. of E. coli BL21 [Novagen, Madison, USA; Genotype: E ompT hsdSB (rB^− mB^−) gal dcm (DE3)] harboring the plasmid pET28a-GFPuv which is obtained by inserting the GFPuv gene (isolated from pBAD-GFPuv through PCR) into the EcoRI site of pET28a (Novagen, Madison, USA) which placed the GFPuv gene under the control of the T7/Lac promotor system. Precultures are incubated at 37° C. for 10-12 h.
Experimental cultures are performed in a volume of 25 mL of the above described medium in 250 mL baffled shake flasks. Stabilizers are added to a final concentration of 5 mM as indicated from sterile stock solutions. Cultures are started by inoculating with the preculture to an OD600 at 600 nm of 0.25. Samples are taken for OD600 measurements. Cultures are induced by adding IPTG (Isopropyl-β-D-thiogalactoside) to a final concentration of 0.5 mM when the OD600 reaches 0.5. Samples of 1 mL are taken after induction for OD600 reading and GFP quantification. For GFP quantification 1 mL of the culture is harvested after 2-4 h and after 20 h after induction. Cells are collected by centrifugation at 16 000 g and the cell pellet is stored at −20° C. for further analysis. Analysis of in vivo GFP fluorescence is performed by the method described in Example 1.

Where [1] appears, read: Experiment 1, process time 26.75 h, relative to control = 1.

Turning to `CC1(C)CC(O)CC(C)(C)N1[O]` [4-Hydroxy-2,2,6,6-tetramethylpiperidin-1-oxyl], the “Optical density Value” worked out at 11.86 with E. coli JM109 (Experiment 1, process time 26.75 h, control 9.86) and 11.42 in the test on E. coli JM109 (Experiment 2, process time 18 h, control 6.67). The “GFP expression (RFU/OD600) Value” is listed as 535 RFU/OD600 in the test on E. coli JM109 (Experiment 1, process time 26.75 h, control 211) and 190 RFU/OD600 in the test with E. coli JM109 (Experiment 2, process time 18 h, control 0). Also, in the test with E. coli JM109 (setting [1]), the “GFP expression Factor” value is reported as 2.53. Further, the “Optical density Factor” value was 1.20 in the test on E. coli JM109 (setting [1]) and 1.7 in the test with E. coli JM109 (Experiment 2, process time 18 h, relative to control = 1). The “Growth (Final OD600)” value in the test with E. coli BL21 (Experiment 1, control 3.4) is on record as 2.4 OD600; with E. coli BL21 (Experiment 2, control 3.3), 2.61 OD600. Besides, the “GFP expression (Relative fluorescence unit*OD600^−1)” value with E. coli BL21 (Experiment 1, control 584) is recorded as 1909 Relative fluorescence unit*OD600^−1; with E. coli BL21 (Experiment 2, control 195), 319 Relative fluorescence unit*OD600^−1.
